Laboratory results reported in BindingDB's records for doi:10.3109/14756361003691860 (Tarbiat Modares University, 2010).

molecular target: Acetylcholinesterase (Homo sapiens, UniProt P22303); assay: AChE Inhibition Assay; settings: pH 7.4; 37 °C
Protocol: The reaction was carried out at 37°C in 70 mM phosphate buffer (Na2HPO4/NaH2PO4, pH 7.4) containing the enzyme (20 μl volume, diluted 100 times in phosphate buffer, pH 7.4), DTNB (5,5-dithiobis(2-nitrobenzoic acid)) (10−4M concentration) and ATCh (1.35 × 10−4M concentration). The absorbance change at 37°C was monitored with the spectrophotometer at 412 nm for 3 min. and three replicates were run in each experiment.

Sequence of Acetylcholinesterase (P22303 whole entry): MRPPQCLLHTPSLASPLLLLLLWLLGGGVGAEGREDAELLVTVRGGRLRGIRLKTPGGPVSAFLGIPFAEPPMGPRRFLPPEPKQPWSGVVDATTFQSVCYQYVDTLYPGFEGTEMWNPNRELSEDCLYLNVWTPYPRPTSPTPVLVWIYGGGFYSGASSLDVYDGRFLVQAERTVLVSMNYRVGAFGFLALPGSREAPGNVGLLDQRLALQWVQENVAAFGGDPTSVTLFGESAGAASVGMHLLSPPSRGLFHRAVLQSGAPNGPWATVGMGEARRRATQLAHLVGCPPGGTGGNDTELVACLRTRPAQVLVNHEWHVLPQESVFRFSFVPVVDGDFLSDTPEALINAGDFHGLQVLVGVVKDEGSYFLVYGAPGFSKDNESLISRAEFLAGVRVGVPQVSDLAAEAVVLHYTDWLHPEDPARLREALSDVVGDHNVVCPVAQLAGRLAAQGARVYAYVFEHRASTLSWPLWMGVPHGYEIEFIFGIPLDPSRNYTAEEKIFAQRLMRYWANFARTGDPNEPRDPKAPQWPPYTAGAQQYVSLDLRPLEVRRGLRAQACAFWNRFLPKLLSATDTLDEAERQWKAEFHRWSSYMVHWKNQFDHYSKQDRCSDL

Row | SMILES | IC50
1 | O=P(O)(O)CN(CCc1ccccc1)CP(=O)(O)O [N-2-Phenyl ethyliminobis(methylenephosphonic acid) (8)] | 11 mM
2 | CCCCCN(CP(=O)(O)O)CP(=O)(O)O [N-Pentyliminobis(methylenephosphonic acid) (4)] | 11.7 mM
3 | CCCCC(CC)CN(CP(=O)(O)O)CP(=O)(O)O (stereo unspecified) [N-2-Ethyl hexyliminobis(methylenephosphonic acid) (6)] | 9.48 mM
4 | CCCN(CP(=O)(O)O)CP(=O)(O)O [N-Propyliminobis(methylenephosphonic acid) (3)] | 12.7 mM
5 | O=P(O)(O)CN1CCCN(CP(=O)(O)O)CC1 [Homopiperazine-1,4-bis(methylenephosphonic acid) (11)] | 28.7 mM
6 | O=P(O)(O)CN(Cc1ccccc1)CP(=O)(O)O [N-Benzyliminobis(methylenephosphonic acid) (7)] | 11.9 mM
7 | O=P(O)(O)CN(CP(=O)(O)O)C1CCCC1 [N-Cyclopentyliminobis(methylenephosphonic acid) (9)] | 11.1 mM
8 | CC(C)N(CP(=O)(O)O)CP(=O)(O)O [N-Isopropyliminobis(methylenephosphonic acid) (5)] | 9.11 mM
9 | O=P(O)(O)CN(CP(=O)(O)O)C1CCCCC1 [N-Cyclohexyliminobis(methylenephosphonic acid) (10)] | 9.96 mM
10 | CCN(CP(=O)(O)O)CP(=O)(O)O [N-Ethyliminobis(methylenephosphonic acid) (2)] | 22.1 mM
11 | CN(CP(=O)(O)O)CP(=O)(O)O [N-Methyliminobis(methylenephosphonic acid) (1)] | 28.1 mM
